The target of assay [1] is T1, cathepsin B (Homo sapiens, UniProt P07858). The assay is described as follows: fluorescence protease assay. In kind it is biochemical.
For assay [2], the target named is T1, cathepsin B. The assay is described as follows: fluorogenic substrate cleavage assay. Format: biochemical.

pIC50: −log10 of the molar value.

The term pIC50 denotes −log10 of the IC50, conventionally taken in molar units. In assay [1], `CC(C)C[C@H](NC(=O)OCc1ccccc1)C(=O)N[C@H](C=O)C[C@@H]1CCNC1=O` [GC-373] showed a pIC50 of 8.01.
Regarding `Cc1cc(=O)oc2cc(NC(=O)[C@H](CCCNC(=N)N)NC(=O)[C@H](CC(C)C)NC(=O)OCc3ccccc3)ccc12` [Z-Leu-Arg-AMC], the “fluorogenic substrate cleavage assay” value in assay [2] was “The cleavage at the site between arginine and AMC dye by cathepsin B resulted in the increase of fluorescence intensity”.

The record behind these values is publication PMC4586312 (Nanomedicine : nanotechnology, biology, and medicine, 2015).
